Test results: ChEMBL document CHEMBL1201862, “PubChem BioAssay data set” (2004)
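48-hour exposure; five concentrations; linearly interpolated endpoints. Here, GI50 denotes the concentration required for 50% inhibition of growth.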 Activity calls are given as the source filed them. No stated cut-off is given here; in the data, active = GI50 up to about 1.1 µM and inactive = higher.

What was measured:
Test in all cases: NCI anticancer screen, dose series, 48 h
MOLT-4 = test system: MOLT-4
A549 = test system: A549
HOP-62 = test system: HOP-62
MCF7 = test system: MCF7
OVCAR-3 = test system: OVCAR-3
HT-29 = test system: HT-29
A498 = test system: A498
SNB-75 = test system: SNB-75
CAKI-1 = test system: CAKI-1
U-251 = test system: U-251
SNB-19 = test system: SNB-19
NCI-H23 = test system: NCI-H23
HOP-92 = test system: HOP-92
HCC 2998 = test system: HCC 2998
SR = test system: SR
RPMI-8226 = test system: RPMI-8226
IGROV-1 = test system: IGROV-1
NCI-H460 = test system: NCI-H460
SK-MEL-2 = test system: SK-MEL-2
T47D = test system: T47D

SMILES | GI50 (MOLT-4) | GI50 (A549) | GI50 (HOP-62) | GI50 (MCF7) | GI50 (OVCAR-3) | GI50 (HT-29) | GI50 (A498) | GI50 (SNB-75) | GI50 (CAKI-1) | GI50 (U-251) | GI50 (SNB-19) | GI50 (NCI-H23) | GI50 (HOP-92) | GI50 (HCC 2998) | GI50 (SR) | GI50 (RPMI-8226) | GI50 (IGROV-1) | GI50 (NCI-H460) | GI50 (SK-MEL-2) | GI50 (T47D)
O=C(/C=C/c1ccccc1)CCN1CCOCC1 | 4.28 µM (inactive) | 24.2 µM (inactive) | 27.3 µM (inactive) | 4.99 µM (inactive) | 14.3 µM (inactive) | 13.6 µM (inactive) | 19 µM (inactive) | 23.4 µM (inactive) | 8.39 µM (inactive) | 12.9 µM (inactive) | 23.8 µM (inactive) | 16.2 µM (inactive) | 16.8 µM (inactive) | 20 µM (inactive) | 2.06 µM (inactive) | 1.56 µM (inactive) | 15.7 µM (inactive) | 17.8 µM (inactive) | 21.1 µM (inactive) | 17.7 µM (inactive)
CC1=NN(c2ccccc2)C(=O)/C1=C\c1c(C)[nH]n(-c2ccccc2)c1=O | > 100 µM (inactive) | > 100 µM (inactive) | > 100 µM (inactive) | > 100 µM (inactive) | 54.5 µM (inactive) | 81.1 µM (inactive) | > 100 µM (inactive) | > 100 µM (inactive) | > 100 µM (inactive) | > 100 µM (inactive) | > 100 µM (inactive) | > 100 µM (inactive) | 27.1 µM (inactive) | > 100 µM (inactive) | > 100 µM (inactive) | 28.4 µM (inactive) | > 100 µM (inactive) | > 100 µM (inactive) | > 100 µM (inactive) | 36.1 µM (inactive)
C/C(=N\NC(=[Se])N(C)C)c1ccccn1 | < 0.01 µM (active) | 0.02 µM (active) | < 0.01 µM (active) | < 0.01 µM (active) | 0.106 µM (active) | < 0.01 µM (active) | 0.4 µM (active) | 0.462 µM (active) | 0.188 µM (active) | < 0.01 µM (active) | 1.37 µM (inactive) | < 0.01 µM (active) | 1.09 µM (active) | 0.459 µM (active) | < 0.01 µM (active) | < 0.01 µM (active) | < 0.01 µM (active) | < 0.01 µM (active) | 0.585 µM (active) | 0.0364 µM (active)
O=C1Cc2c(-c3ccccc3)cc(-c3ccc(Cl)cc3)nc2-c2ccccc2N1 | 7.8 µM (inactive) | 9.35 µM (inactive) | 3.66 µM (inactive) | 8.89 µM (inactive) | 8.73 µM (inactive) | 3.66 µM (inactive) | 1.75 µM (inactive) | 2.03 µM (inactive) | 3.91 µM (inactive) | 1.72 µM (inactive) | 1.94 µM (inactive) | 4.03 µM (inactive) | 2.3 µM (inactive) | 6.07 µM (inactive) | 10 µM (inactive) | 8.47 µM (inactive) | 4.62 µM (inactive) | 3.21 µM (inactive) | 17.1 µM (inactive) | 3.23 µM (inactive)
CCOC(=O)C(NC(=O)c1cccc(Cl)c1)(Nc1ccc(S(=O)(=O)Nc2cc(C)nc(C)n2)cc1)C(F)(F)F (centres undefined) | > 100 µM (inactive) | > 100 µM (inactive) | > 100 µM (inactive) | > 100 µM (inactive) | > 100 µM (inactive) | > 100 µM (inactive) | > 100 µM (inactive) | > 100 µM (inactive) | > 100 µM (inactive) | > 100 µM (inactive) | > 100 µM (inactive) | > 100 µM (inactive) | 80.5 µM (inactive) | > 100 µM (inactive) | 68.7 µM (inactive) | > 100 µM (inactive) | > 100 µM (inactive) | > 100 µM (inactive) | > 100 µM (inactive) | > 100 µM (inactive)
CC(=O)Nc1nnc(S(=O)(=O)NC(=S)Nc2ccc(Cl)cc2)s1 | > 100 µM (inactive) | > 100 µM (inactive) | > 100 µM (inactive) | > 100 µM (inactive) | > 100 µM (inactive) | > 100 µM (inactive) | > 100 µM (inactive) | > 100 µM (inactive) | > 100 µM (inactive) | > 100 µM (inactive) | > 100 µM (inactive) | > 100 µM (inactive) | > 100 µM (inactive) | > 100 µM (inactive) | > 100 µM (inactive) | > 100 µM (inactive) | > 100 µM (inactive) | > 100 µM (inactive) | > 100 µM (inactive) | > 100 µM (inactive)
COc1cc2c(cc1O)NC(=O)[C@@H]1C[C@@H](O)CN1C2=O | 37.6 µM (inactive) | > 100 µM (inactive) | 27.4 µM (inactive) | > 100 µM (inactive) | 29.2 µM (inactive) | 72.6 µM (inactive) | > 100 µM (inactive) | > 100 µM (inactive) | 78 µM (inactive) | 79.3 µM (inactive) | > 100 µM (inactive) | > 100 µM (inactive) | > 100 µM (inactive) | > 100 µM (inactive) | 39.9 µM (inactive) | 45.6 µM (inactive) | > 100 µM (inactive) | 72.4 µM (inactive) | > 100 µM (inactive) | > 100 µM (inactive)
O=C1OC(C2Cc3ccc4c(c3C2=O)CCC4)c2ccccc21 (centres undefined) | 30.9 µM (inactive) | 50 µM (inactive) | > 100 µM (inactive) | 50.1 µM (inactive) | 28.4 µM (inactive) | 52.8 µM (inactive) | 60.5 µM (inactive) | 46 µM (inactive) | > 100 µM (inactive) | 38.8 µM (inactive) | 52.4 µM (inactive) | 55.2 µM (inactive) | 56.2 µM (inactive) | 37.4 µM (inactive) | 38.8 µM (inactive) | 25.3 µM (inactive) | 82.4 µM (inactive) | 50.9 µM (inactive) | 64.9 µM (inactive) | 54.6 µM (inactive)
CC(=O)[C@@]1(O)CC[C@H]2[C@@H]3C[C@H](C)C4=CC(=O)C=C[C@]4(C)[C@@]3(F)[C@@H](O)C[C@@]21C [FLUOROMETHOLONE] | > 100 µM (inactive) | > 100 µM (inactive) | > 100 µM (inactive) | > 100 µM (inactive) | > 100 µM (inactive) | > 100 µM (inactive) | > 100 µM (inactive) | 69.5 µM (inactive) | > 100 µM (inactive) | > 100 µM (inactive) | > 100 µM (inactive) | > 100 µM (inactive) | > 100 µM (inactive) | > 100 µM (inactive) | > 100 µM (inactive) | > 14.6 µM (inactive) | > 100 µM (inactive) | > 100 µM (inactive) | > 100 µM (inactive) | > 69.8 µM (inactive)
CCOC(=O)c1cc2c(OC(C)=O)ccc(OC(C)=O)c2s1 | 2.58 µM (inactive) | 10.7 µM (inactive) | 10.3 µM (inactive) | 3.03 µM (inactive) | 1.61 µM (inactive) | 3.02 µM (inactive) | 5.28 µM (inactive) | 2.07 µM (inactive) | 4.35 µM (inactive) | 2.97 µM (inactive) | 7.03 µM (inactive) | 1.99 µM (inactive) | 1.44 µM (inactive) | 8.97 µM (inactive) | 3.27 µM (inactive) | 2.31 µM (inactive) | 1.76 µM (inactive) | 5.65 µM (inactive) | 2.62 µM (inactive) | 1.48 µM (inactive)
CN(C)c1ccc(C2CC(c3ccc4ccccc4c3O)=NN2)cc1 (centres undefined) | 20.3 µM (inactive) | 31 µM (inactive) | 31 µM (inactive) | 27.7 µM (inactive) | 18 µM (inactive) | 34.4 µM (inactive) | 22.4 µM (inactive) | 37 µM (inactive) | 40.6 µM (inactive) | 33.6 µM (inactive) |  | 34.5 µM (inactive) | 29.4 µM (inactive) | 69.7 µM (inactive) | 14.1 µM (inactive) | 29.6 µM (inactive) | 24.9 µM (inactive) | 32.2 µM (inactive) | 35.7 µM (inactive) | 38.8 µM (inactive)
C=C(C)C(=O)OC1C[C@H](COC(C)=O)C2CC=C(C)C2C2OC(=O)C(=C)[C@H]12 (some centres undefined) | 1.72 µM (inactive) | 17 µM (inactive) | 13.3 µM (inactive) | 4.11 µM (inactive) | 2.19 µM (inactive) | 4.25 µM (inactive) | 14.3 µM (inactive) | 10.8 µM (inactive) | 2.81 µM (inactive) | 8.67 µM (inactive) | 16.9 µM (inactive) | 4.26 µM (inactive) | 1.92 µM (inactive) | 12.2 µM (inactive) | 2.06 µM (inactive) | 0.525 µM (active) | 11.7 µM (inactive) | 15 µM (inactive) | 2.82 µM (inactive) | 4.98 µM (inactive)
COC(=O)[C@@H]1C=C[C@H](OC2OC(COC(C)=O)C(OC(C)=O)C(OC(C)=O)C2OC(C)=O)n2c(=O)c3ccccc3c(=O)n21 (some centres undefined) | 11.8 µM (inactive) | 21.4 µM (inactive) | 17.9 µM (inactive) | 8.61 µM (inactive) | 10.4 µM (inactive) | 7.21 µM (inactive) | 12.2 µM (inactive) | 6.71 µM (inactive) | 3.45 µM (inactive) | 12 µM (inactive) | 19.4 µM (inactive) | 18.6 µM (inactive) | 10.1 µM (inactive) | 16.1 µM (inactive) | 4.82 µM (inactive) | 4.66 µM (inactive) | 18.2 µM (inactive) | 12.3 µM (inactive) | 9.16 µM (inactive) | 4.7 µM (inactive)
COc1ccccc1/C=C/c1c(N)ncnc1Nc1cccc(Cl)c1 | 0.311 µM (active) | 14.6 µM (inactive) | 19.4 µM (inactive) | 25.8 µM (inactive) | 25.2 µM (inactive) | 17.7 µM (inactive) | 12.7 µM (inactive) | 9.53 µM (inactive) | 20.9 µM (inactive) | 15.7 µM (inactive) | 20.6 µM (inactive) | 20.8 µM (inactive) | 0.243 µM (active) | 27.4 µM (inactive) | 0.132 µM (active) | 0.318 µM (active) | 1.69 µM (inactive) | 20.7 µM (inactive) | 18.6 µM (inactive) | 40.4 µM (inactive)
